Test results: BindingDB's records for doi:10.1021/jm00083a013 (1992)
Each block holds one molecule with its values, some of them ahead of it.

Columns and labels:
[1] = target: Aminopeptidase N (Rattus norvegicus) (UniProt P15684); assay: Compound was evaluated for its inhibitory potency against purified membrane bound rat brain Aminopeptidase
Aminopeptidase B [2] = target: T1, Aminopeptidase B (Rattus norvegicus, UniProt O09175); assay: Compound was evaluated for its inhibitory potency against purified membrane bound rat brain Aminopeptidase B (AP-B) using L-lysine-beta napthylamide as substrate
T1 sequence (O09175 whole entry): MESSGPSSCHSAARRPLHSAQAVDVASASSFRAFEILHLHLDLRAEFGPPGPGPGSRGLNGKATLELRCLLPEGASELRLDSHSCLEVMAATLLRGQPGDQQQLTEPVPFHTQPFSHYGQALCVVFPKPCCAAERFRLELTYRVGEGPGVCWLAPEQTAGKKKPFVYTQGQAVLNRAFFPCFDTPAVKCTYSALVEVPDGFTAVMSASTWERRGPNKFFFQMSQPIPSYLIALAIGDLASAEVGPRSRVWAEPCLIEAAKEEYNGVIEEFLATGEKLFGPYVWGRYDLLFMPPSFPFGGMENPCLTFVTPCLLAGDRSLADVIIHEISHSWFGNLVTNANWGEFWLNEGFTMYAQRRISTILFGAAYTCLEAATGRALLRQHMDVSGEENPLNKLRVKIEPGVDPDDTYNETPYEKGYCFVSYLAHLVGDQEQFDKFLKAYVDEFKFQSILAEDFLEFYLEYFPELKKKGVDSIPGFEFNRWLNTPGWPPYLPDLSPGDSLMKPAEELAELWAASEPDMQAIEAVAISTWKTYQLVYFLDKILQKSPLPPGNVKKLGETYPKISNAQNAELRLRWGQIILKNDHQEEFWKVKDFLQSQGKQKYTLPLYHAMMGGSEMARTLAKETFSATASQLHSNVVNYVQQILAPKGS

Aminopeptidase N = target: T2, Aminopeptidase N (Rattus norvegicus, UniProt P15684); assay: ChEBML_35366
T2 sequence (P15684 whole entry): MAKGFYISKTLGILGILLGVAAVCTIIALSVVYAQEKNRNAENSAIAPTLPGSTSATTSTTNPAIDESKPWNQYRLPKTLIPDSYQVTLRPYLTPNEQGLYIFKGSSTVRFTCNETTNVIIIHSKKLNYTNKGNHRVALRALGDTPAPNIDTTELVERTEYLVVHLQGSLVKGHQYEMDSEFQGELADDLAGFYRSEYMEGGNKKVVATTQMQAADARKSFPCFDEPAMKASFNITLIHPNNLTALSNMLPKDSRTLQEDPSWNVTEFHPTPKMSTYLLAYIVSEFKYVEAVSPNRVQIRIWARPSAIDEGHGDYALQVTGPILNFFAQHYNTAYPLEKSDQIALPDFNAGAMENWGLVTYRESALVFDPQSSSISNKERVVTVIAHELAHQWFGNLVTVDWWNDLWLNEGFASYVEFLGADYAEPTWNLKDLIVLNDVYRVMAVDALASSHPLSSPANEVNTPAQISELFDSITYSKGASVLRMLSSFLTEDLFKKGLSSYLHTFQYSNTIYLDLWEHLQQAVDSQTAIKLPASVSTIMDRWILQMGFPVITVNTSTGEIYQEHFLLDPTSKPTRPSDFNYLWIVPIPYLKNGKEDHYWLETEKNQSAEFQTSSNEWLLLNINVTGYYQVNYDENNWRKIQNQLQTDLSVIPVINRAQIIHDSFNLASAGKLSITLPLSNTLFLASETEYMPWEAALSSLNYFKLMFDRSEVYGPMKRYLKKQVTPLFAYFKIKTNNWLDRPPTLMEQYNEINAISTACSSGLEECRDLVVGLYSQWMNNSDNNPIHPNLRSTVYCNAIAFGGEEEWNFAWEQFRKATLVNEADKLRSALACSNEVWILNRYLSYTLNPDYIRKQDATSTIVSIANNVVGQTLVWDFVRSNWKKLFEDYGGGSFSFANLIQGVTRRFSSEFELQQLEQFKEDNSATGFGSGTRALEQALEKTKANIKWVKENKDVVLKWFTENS
Experimental: Compound was evaluated for its inhibitory potency against purified membrane bound rat brain Aminopeptidase M (AP-M) using [3H]Leu-enkephalin as substrate

Aminopeptidase B [3] = target: T1, Aminopeptidase B; assay: ChEBML_35343
Experimental: Compound was evaluated for its inhibitory potency against purified membrane bound rat brain Aminopeptidase B using L-lysine-beta napthylamide as substrate

- IC50 [1]: 2.01 µM
Compound: COC(=O)[C@H](CC(C)C)NC(=O)[C@@H](O)[C@H](N)CCCCN

- IC50 (Aminopeptidase B [2]): 500 µM
- IC50 (Aminopeptidase N): > 1000 µM
Compound: COC(=O)[C@H](CC(C)C)NC(=O)[C@H](O)[C@@H](N)CCCCN

- IC50 (Aminopeptidase B [3]): 500 µM
Compound: COC(=O)[C@H](Cc1c[nH]c2ccccc12)NC(=O)[C@H](O)[C@@H](N)CCCCN
